Laboratory results from ChEMBL document CHEMBL1201862, “PubChem BioAssay data set” (2004).
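Values below derive from 48-hour exposures of cells grown in 96-well plates, with endpoints linearly interpolated between the two concentrations bracketing the appropriate inhibition level. Here, GI50 denotes the concentration required for 50% inhibition of growth.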 Active and inactive are the calls of the source. Cut-off read from the data, not from the text of the source: active = GI50 up to about 1.1 µM and inactive = higher.

Legend:
Experiment in all cases: DTP human tumour cell line panel, 48 h
MOLT-4 = test system: MOLT-4
CAKI-1 = test system: CAKI-1
SF-295 = test system: SF-295
M14 = test system: M14
OVCAR-3 = test system: OVCAR-3
A498 = test system: A498
MDA-N = test system: MDA-N
OVCAR-8 = test system: OVCAR-8
KM12 = test system: KM12
SW-620 = test system: SW-620
SK-MEL-2 = test system: SK-MEL-2
OVCAR-5 = test system: OVCAR-5
BT-549 = test system: BT-549
786-0 = test system: 786-0
HL-60 = test system: HL-60
EKVX = test system: EKVX
SNB-19 = test system: SNB-19
COLO 205 = test system: COLO 205
MCF7 = test system: MCF7

| SMILES | GI50 (MOLT-4) | GI50 (CAKI-1) | GI50 (SF-295) | GI50 (M14) | GI50 (OVCAR-3) | GI50 (A498) | GI50 (MDA-N) | GI50 (OVCAR-8) | GI50 (KM12) | GI50 (SW-620) | GI50 (SK-MEL-2) | GI50 (OVCAR-5) | GI50 (BT-549) | GI50 (786-0) | GI50 (HL-60) | GI50 (EKVX) | GI50 (SNB-19) | GI50 (COLO 205) | GI50 (MCF7) |
| --- | --- | --- | --- | --- | --- | --- | --- | --- | --- | --- | --- | --- | --- | --- | --- | --- | --- | --- | --- |
| OC(Cc1ccccc1)(Cc1ccccc1)c1ccccc1 | 24.6 µM (inactive) | 23.2 µM (inactive) | 19.3 µM (inactive) | 17.7 µM (inactive) | 18.2 µM (inactive) | 19.9 µM (inactive) | 15.2 µM (inactive) | 19 µM (inactive) | 18.3 µM (inactive) | 22.2 µM (inactive) | 15.3 µM (inactive) | 17.2 µM (inactive) | 18.7 µM (inactive) | 15.2 µM (inactive) | 22 µM (inactive) | 12.3 µM (inactive) | 26.1 µM (inactive) |  |  |
| CCOC(=O)/C=C(\C)Sc1cc(O)c2ccccc2c1O | 8.05 µM (inactive) | 23.5 µM (inactive) | 24.6 µM (inactive) | 10.8 µM (inactive) | 28.6 µM (inactive) | 18.5 µM (inactive) |  | 16.5 µM (inactive) | 28.6 µM (inactive) | 5.08 µM (inactive) | 20.9 µM (inactive) | 24.4 µM (inactive) | 22 µM (inactive) | 19.8 µM (inactive) | 3.77 µM (inactive) | 27.9 µM (inactive) | 14.4 µM (inactive) | 17.3 µM (inactive) | 13.9 µM (inactive) |
| COC(=O)C1=C(CCC[C@H](C)O[Si](C)(C)C(C)(C)C)NC(=O)N2[C@@H](CCO)CC[C@H]12 | 18.6 µM (inactive) | 17.2 µM (inactive) | 11.7 µM (inactive) | 16.3 µM (inactive) | 13.3 µM (inactive) | 16.6 µM (inactive) |  | 15.5 µM (inactive) | 18.3 µM (inactive) | 20.1 µM (inactive) |  | 19.4 µM (inactive) | 15 µM (inactive) | 14.5 µM (inactive) |  | 12.4 µM (inactive) | 15.2 µM (inactive) | 17.6 µM (inactive) |  |
| C[C@@H](Br)[C@@H]1CC[C@H]2c3[nH]c4ccccc4c3CCN2C1 | 17.7 µM (inactive) | 16.6 µM (inactive) | 19.5 µM (inactive) | 19.8 µM (inactive) | 15.6 µM (inactive) | 31.2 µM (inactive) | 19.4 µM (inactive) | 26.9 µM (inactive) | 14.5 µM (inactive) | 21.8 µM (inactive) | 20.6 µM (inactive) | 34.4 µM (inactive) |  | 18.6 µM (inactive) | 20 µM (inactive) | 33.1 µM (inactive) | 20.1 µM (inactive) | 13.5 µM (inactive) | 23.7 µM (inactive) |
| CCOC(=O)c1c(SC(=O)c2cc(OC)c(OC)c(OC)c2)n(-c2ccccc2)c(=S)n(-c2ccccc2)c1=O | > 100 µM (inactive) | > 100 µM (inactive) | > 100 µM (inactive) | > 100 µM (inactive) | > 100 µM (inactive) | > 100 µM (inactive) | > 100 µM (inactive) | > 100 µM (inactive) | > 100 µM (inactive) | > 100 µM (inactive) |  | > 100 µM (inactive) |  | > 100 µM (inactive) | > 100 µM (inactive) | > 100 µM (inactive) | > 100 µM (inactive) | > 100 µM (inactive) | > 100 µM (inactive) |
| O=S1(=O)OCCCOS(=O)(=O)C1Br | > 100 µM (inactive) | > 100 µM (inactive) | > 100 µM (inactive) | > 100 µM (inactive) | > 100 µM (inactive) |  | > 100 µM (inactive) | > 100 µM (inactive) | > 100 µM (inactive) | > 100 µM (inactive) | > 100 µM (inactive) | > 100 µM (inactive) | > 100 µM (inactive) | > 100 µM (inactive) |  | > 100 µM (inactive) | > 100 µM (inactive) | > 100 µM (inactive) | > 100 µM (inactive) |
| O=C(/C=C(\Nc1ccccc1O)c1ccccc1)C(=O)NC12CC3CC(CC(C3)C1)C2 | 5.66 µM (inactive) | > 10 µM (inactive) | > 10 µM (inactive) | > 10 µM (inactive) | > 10 µM (inactive) | > 10 µM (inactive) | > 10 µM (inactive) | > 10 µM (inactive) | 6.95 µM (inactive) | > 10 µM (inactive) | > 10 µM (inactive) | 8.45 µM (inactive) |  | > 10 µM (inactive) | 3.52 µM (inactive) | > 10 µM (inactive) |  | > 10 µM (inactive) | > 10 µM (inactive) |
| OCC(O)C(O)C(C=NNc1ncnc2ccc(Br)cc12)=NNc1ncnc2ccc(Br)cc12 (stereo not given) | 0.258 µM (active) | 0.83 µM (active) | 3.25 µM (inactive) | 1.62 µM (inactive) | 0.339 µM (active) | 4.23 µM (inactive) | 3.63 µM (inactive) | 0.533 µM (active) | 2.72 µM (inactive) | 0.809 µM (active) | 2.3 µM (inactive) | 3.58 µM (inactive) |  | 0.834 µM (active) | 0.282 µM (active) | 0.406 µM (active) | 2.17 µM (inactive) | 0.255 µM (active) | 0.378 µM (active) |
| O=C(/C=C/c1csc(-c2ccccc2)n1)NCc1ccc(C(=O)NCc2ccccc2)cc1 | > 100 µM (inactive) | 25.2 µM (inactive) | 30.4 µM (inactive) | > 100 µM (inactive) | > 100 µM (inactive) | 64.9 µM (inactive) |  | 26.4 µM (inactive) | > 100 µM (inactive) | > 100 µM (inactive) | > 100 µM (inactive) | > 100 µM (inactive) | > 100 µM (inactive) | 33 µM (inactive) |  | > 100 µM (inactive) | 26.5 µM (inactive) | > 100 µM (inactive) | > 100 µM (inactive) |
| COc1ccc2c(c1OC)C(=O)C2 | > 100 µM (inactive) |  | > 100 µM (inactive) | > 100 µM (inactive) |  |  |  | > 100 µM (inactive) | > 100 µM (inactive) | > 100 µM (inactive) | > 100 µM (inactive) |  |  | > 100 µM (inactive) | > 100 µM (inactive) | > 100 µM (inactive) | > 100 µM (inactive) | > 100 µM (inactive) |  |
| CC(=O)N/N=C1\CC(C)(C)C2CCC1C2 (stereo not given) | > 100 µM (inactive) | > 100 µM (inactive) | > 100 µM (inactive) | > 100 µM (inactive) | > 100 µM (inactive) | > 100 µM (inactive) |  | > 100 µM (inactive) | > 100 µM (inactive) | > 100 µM (inactive) | > 100 µM (inactive) | > 100 µM (inactive) |  | > 100 µM (inactive) | > 100 µM (inactive) | > 100 µM (inactive) | > 100 µM (inactive) | > 100 µM (inactive) |  |
| Cc1nc(-c2cc3c(ccc4ccccc43)oc2=O)cc2c1c(=O)oc1ccc3ccccc3c12 | > 100 µM (inactive) | > 100 µM (inactive) | > 100 µM (inactive) | > 100 µM (inactive) | > 100 µM (inactive) | > 100 µM (inactive) |  | > 100 µM (inactive) | > 100 µM (inactive) | > 100 µM (inactive) | > 100 µM (inactive) | > 100 µM (inactive) | > 100 µM (inactive) | > 100 µM (inactive) | > 100 µM (inactive) | > 100 µM (inactive) | > 100 µM (inactive) | > 100 µM (inactive) | > 100 µM (inactive) |
| COc1ccc(N/N=C/C2=CC(C)(C)C(C#N)(C#N)C(O)=C2C#N)cc1 | 28.4 µM (inactive) | 36.6 µM (inactive) | 36.6 µM (inactive) | 54.2 µM (inactive) | 21.6 µM (inactive) | 37.9 µM (inactive) | 54.5 µM (inactive) | 28.7 µM (inactive) | 32.5 µM (inactive) | 40.9 µM (inactive) | 49.2 µM (inactive) | 69.8 µM (inactive) |  | 38.5 µM (inactive) | 37.7 µM (inactive) | 66.5 µM (inactive) | 56.6 µM (inactive) | 22.5 µM (inactive) | 35.8 µM (inactive) |
| CN1CCC/C1=N\C#N | > 100 µM (inactive) | > 100 µM (inactive) | > 100 µM (inactive) | > 100 µM (inactive) | > 100 µM (inactive) | > 100 µM (inactive) | > 100 µM (inactive) | > 100 µM (inactive) | > 100 µM (inactive) | > 100 µM (inactive) | > 100 µM (inactive) | > 100 µM (inactive) |  | > 100 µM (inactive) | > 100 µM (inactive) | > 100 µM (inactive) | > 100 µM (inactive) | > 100 µM (inactive) | > 100 µM (inactive) |
| COc1cc([C@@H]2OC[C@@H]3C(c4cc(OC)c5c(c4)OCO5)OC[C@@H]32)cc(OC)c1OC (stereo not given in full) | 51.3 µM (inactive) | > 100 µM (inactive) | > 100 µM (inactive) | > 100 µM (inactive) | > 100 µM (inactive) | > 100 µM (inactive) |  | 69.8 µM (inactive) | > 100 µM (inactive) | > 100 µM (inactive) | > 100 µM (inactive) | > 100 µM (inactive) | 57.9 µM (inactive) | > 100 µM (inactive) | > 10 µM (inactive) | > 100 µM (inactive) | > 100 µM (inactive) | > 100 µM (inactive) | > 100 µM (inactive) |
| CC1=CC(=O)C(=C(C)C)CC1 | > 100 µM (inactive) | > 100 µM (inactive) | > 100 µM (inactive) | > 100 µM (inactive) | > 100 µM (inactive) |  | > 100 µM (inactive) | > 100 µM (inactive) | > 100 µM (inactive) |  |  | > 100 µM (inactive) | > 100 µM (inactive) | > 100 µM (inactive) | 53.6 µM (inactive) | > 100 µM (inactive) | > 100 µM (inactive) | > 10 µM (inactive) | > 100 µM (inactive) |
